Measured values taken from patent publication US20260008787A1, “FUSED RING KRAS INHIBITORS FOR TREATING DISEASE” (BLOSSOMHILL THERAPEUTICS, INC., priority 2022, published 2026).

Key:
KRAS G12V = KRAS G12V (Homo sapiens, UniProt P01116, G12V); assay: biochemical
KRAS G12D = KRAS G12D (Homo sapiens, UniProt P01116, G12D); assay: biochemical
GP2D (KRAS G12D) = assay: Cell proliferation assay (CellTiter-Glo, 72 hours), GP2D; type: cell-based; settings: GP2d, 72 h, 384-well, CellTiter-Glo 2.0
Method: (§1) Two thousand KRAS mutant cells per well were seeded in 384-well white plate and then treated with indicated compounds for 72 hours at 37° C. and 5% CO2. Cell proliferation was measured using CellTiter-Glo 2.0 luciferase-based ATP detection assay (Promega, Madison, WI) following the manufacturer's protocol. IC50 values were determined using Prism software (GraphPad Software, San Diego, CA).

AGS (G12D) = assay: Cell proliferation assay (CellTiter-Glo, 72 hours), AGS; type: cell-based; settings: 72 h, 384-well, CellTiter-Glo 2.0
Method: as §1

SW620 (KRAS G12V) = assay: Cell proliferation assay (CellTiter-Glo, 72 hours), SW620; type: cell-based; settings: Homo sapiens, SW-620, 72 h, 384-well, CellTiter-Glo 2.0
Method: as §1

Sequence of KRAS G12V (P01116 1-188 isoform P01116-2 G12V): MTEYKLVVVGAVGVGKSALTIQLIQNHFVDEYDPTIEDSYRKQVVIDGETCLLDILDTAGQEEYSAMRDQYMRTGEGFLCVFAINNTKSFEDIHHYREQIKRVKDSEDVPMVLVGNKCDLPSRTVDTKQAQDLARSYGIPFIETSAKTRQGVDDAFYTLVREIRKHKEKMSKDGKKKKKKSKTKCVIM
Sequence of KRAS G12D (P01116 1-188 isoform P01116-2 G12D): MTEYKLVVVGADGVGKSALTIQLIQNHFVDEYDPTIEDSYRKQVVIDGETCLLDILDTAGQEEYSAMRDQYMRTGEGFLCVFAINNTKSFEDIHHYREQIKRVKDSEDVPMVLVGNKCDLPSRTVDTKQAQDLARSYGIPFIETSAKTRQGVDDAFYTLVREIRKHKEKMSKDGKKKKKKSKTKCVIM

SMILES | IC50 (KRAS G12V) | IC50 (KRAS G12D) | IC50 (GP2D (KRAS G12D)) | IC50 (AGS (G12D)) | IC50 (SW620 (KRAS G12V))
CCc1c(F)ccc2cc(O)cc(-c3nc4c5c(nc(OC[C@@]67CCCN6C[C@H](F)C7)nc5c3F)N(C)[C@@H](CC)CO4)c12 [Example 99] | 1.02 nM | 0.85 nM | 22.4 nM | 86.3 nM | 96.8 nM
C#Cc1c(F)ccc2cc(O)cc(-c3nc4c5c(nc(OC[C@@]67CCCN6C[C@H](F)C7)nc5c3F)N(Cc3ccccc3)[C@@H](C)CO4)c12 [Example 74, 4-[(9S)-10-benzyl-4-fluoro-2-{[(2R,7aS)-2-fluorotetrahydro-1H-pyrrolizin-7a(5H)-yl]methoxy}-9-methyl-9,10-dihydro-8H-7-oxa-1,3,6,10-tetraazacyclohepta[1,2,3-de]naphthalen-5-yl]-5-ethynyl-6-fluoronaphthalen-2-ol] | 2.81 nM | 4 nM | 480 nM | 1480 nM | 348 nM
C#Cc1c(F)ccc2cc(O)cc(-c3nc4c5c(nc(OC[C@@]67CCCN6C[C@H](F)C7)nc5c3F)N3[C@@H](COC[C@@H]3C)CO4)c12 [Example 59, 5-ethynyl-6-fluoro-4-[(8aS,12S)-4-fluoro-2-{[(2R,7aS)-2-fluorotetrahydro-1H-pyrrolizin-7a(5H)-yl]methoxy}-12-methyl-8a,9,11,12-tetrahydro-8H-7,10-dioxa-1,3,6,12a-tetraazabenzo[4,5]cyclohepta[1,2,3-de]naphthalen-5-yl]naphthalen-2-ol] | 3.08 nM | 2.66 nM | 12.4 nM | 70.6 nM | 77.2 nM
C#Cc1c(F)ccc2cc(O)cc(-c3nc4c5c(nc(OC[C@@]67CCCN6C[C@H](F)C7)nc5c3F)N[C@@H](C3CCCO3)CO4)c12 (stereo partly drawn) [Example 126, 5-ethynyl-6-fluoro-4-((9R)-4-fluoro-2-(((2R,7aS)-2-fluorotetrahydro-1H-pyrrolizin-7a(5H)-yl)methoxy)-9-(tetrahydrofuran-2-yl)-9,10-dihydro-8H-7-oxa-1,3,6,10-tetraazacyclohepta[de]naphthalen-5-yl)naphthalen-2-ol] | 30.2 nM | 111 nM | > 3000 nM | > 3000 nM | 109 nM
Fc1c(-c2c(Cl)ccc3[nH]ncc23)nc2c3c(nc(OC[C@@]45CCCN4C[C@H](F)C5)nc13)N1CCCC[C@H]1CO2 [Example 78, (7S)-12-(5-chloro-1H-indazol-4-yl)-13-fluoro-16-[[(2R,8S)-2-fluoro-1,2,3,5,6,7-hexahydropyrrolizin-8-yl]methoxy]-9-oxa-2,11,15,17-tetrazatetracyclo [8.7.1.02,7.014,18]octadeca-1 (17),10 (18),11,13,15-pentaene] | 51.9 nM | 40.2 nM | > 3000 nM | > 3000 nM | > 3000 nM
C#Cc1c(F)ccc2cc(O)cc(-c3nc4c5c(nc(OCC67CCCN6C/C(=C/F)C7)nc5c3F)N3CCCC[C@H]3CO4)c12 (stereo partly drawn) [Example 79, 5-ethynyl-6-fluoro-4-[(8aS)-4-fluoro-2-{[(2E)-2-(fluoromethylidene)tetrahydro-1H-pyrrolizin-7a(5H)-yl]methoxy}-8,8a,9,10,11,12-hexahydro-7-oxa-1,3,6,12a-tetraazabenzo[4,5]cyclohepta[1,2,3-de]naphthalen-5-yl]naphthalen-2-ol] | 1.69 nM | 1.65 nM | 2.26 nM | 3.33 nM | 11.2 nM
CCc1c(F)ccc2cc(O)cc(-c3nc4c5c(nc(OC[C@@]67CCCN6C[C@H](F)C7)nc5c3F)N3CCCC[C@H]3C(C)O4)c12 (stereo partly drawn) [Example 75, 5-ethyl-6-fluoro-4-((5aS)-1-fluoro-11-(((2R,7aS)-2-fluorotetrahydro-1H-pyrrolizin-7a(5H)-yl)methoxy)-5-methyl-5,5a,6,7,8,9-hexahydro-4-oxa-3,9a, 10,12-tetraazabenzo[4,5]cyclohepta[1,2,3-de]naphthalen-2-yl)naphthalen-2-ol] | 1.6 nM | 1.76 nM | 349 nM | 1620 nM | 702 nM
C#Cc1c(F)ccc2cc(O)cc(-c3nc4c5c(nc(OC[C@@]67CCCN6C[C@H](F)C7)nc5c3F)NCCC4)c12 [Example 122, 5-ethynyl-6-fluoro-4-(4-fluoro-2-{[(2R,7aS)-2-fluorotetrahydro-1H-pyrrolizin-7a(5H)-yl]methoxy}-7,8,9,10-tetrahydro-1,3,6,10-tetraazacyclohepta[1,2,3-de]naphthalen-5-yl)naphthalen-2-ol] | 16.9 nM | 14.8 nM | 2410 nM | 5490 nM | 4900 nM
Nc1nc2c(-c3nc4c5c(nc(OC[C@@]67CCCN6C[C@H](F)C7)nc5c3F)N3CCCC[C@H]3CO4)ccc(F)c2s1 [Example 40, 7-fluoro-4-[(8aS)-4-fluoro-2-{[(2R,7aS)-2-fluorotetrahydro-1H-pyrrolizin-7a(5H)-yl]methoxy}-8,8a,9,10,11,12-hexahydro-7-oxa-1,3,6,12a-tetraazabenzo[4,5]cyclohepta[1,2,3-de]naphthalen-5-yl]-1,3-benzothiazol-2-amine] | 28.2 nM | 30.1 nM | > 3000 nM | > 3000 nM | > 3000 nM
C#Cc1c(F)ccc2cc(O)cc(-c3nc4c5c(nc(OC[C@@]67CCCN6C[C@H](F)C7)nc5c3F)N3CC(C#N)CCC3CO4)c12 (stereo partly drawn) [Example 109, 5-(8-ethynyl-7-fluoro-3-hydroxynaphthalen-1-yl)-4-fluoro-2-{[(2R,7aS)-2-fluorotetrahydro-1H-pyrrolizin-7a(5H)-yl]methoxy}-8,8a,9,10,11,12-hexahydro-7-oxa-1,3,6,12a-tetraazabenzo[4,5]cyclohepta[1,2,3-de]naphthalene-11-carbonitrile] | 27 nM | 15.9 nM | 2000 nM | > 3000 nM | > 3000 nM
C#Cc1c(F)ccc2cc(O)cc(-c3nc4c5c(nc(OC[C@@]67CCCN6C[C@H](F)C7)nc5c3F)N(C)[C@@H](CC)CO4)c12 [Example 96, 4-[(9S)-9-ethyl-4-fluoro-2-{[(2R,7aS)-2-fluorotetrahydro-1H-pyrrolizin-7a(5H)-yl]methoxy}-10-methyl-9,10-dihydro-8H-7-oxa-1,3,6,10-tetraazacyclohepta[1,2,3-de]naphthalen-5-yl]-5-ethynyl-6-fluoronaphthalen-2-ol] | 2.46 nM | 2.39 nM | 16.8 nM | 82.9 nM | 92.6 nM
C#Cc1c(F)ccc2cc(O)cc(-c3nc4c5c(nc(OC[C@@]67CCCN6C[C@H](F)C7)nc5c3F)N3CC=CC[C@H]3CO4)c12 [Example 106, 5-ethynyl-6-fluoro-4-[(7S)-13-fluoro-16-[[(2R,8S)-2-fluoro-1,2,3,5,6,7-hexahydropyrrolizin-8-yl]methoxy]-9-oxa-2,11,15,17-tetrazatetracyclo [8.7.1.0^2,7.0^14,18]octadeca-1 (17),4,10 (18),11,13,15-hexaen-12-yl]naphthalen-2-ol] | 3.83 nM | 3.26 nM | 14.6 nM | 48.8 nM | 64.5 nM
Cc1cc(N)nc(-c2nc3c4c(nc(OC[C@@]56CCCN5C[C@H](F)C6)nc4c2F)N2CCCC[C@H]2CO3)c1C(F)(F)F [Example 43, 6-[(8aS)-4-fluoro-2-{[(2R,7aS)-2-fluorotetrahydro-1H-pyrrolizin-7a(5H)-yl]methoxy}-8,8a,9,10,11,12-hexahydro-7-oxa-1,3,6,12a-tetraazabenzo[4,5]cyclohepta[1,2,3-de]naphthalen-5-yl]-4-methyl-5-(trifluoromethyl)pyridin-2-amine] | 12.7 nM | 16.3 nM | 2120 nM | > 3000 nM | > 3000 nM
CC[C@H]1COc2nc(-c3cccc4sc(N)c(C#N)c34)c(F)c3nc(OC[C@@]45CCCN4C[C@H](F)C5)nc(c23)N1C [Example 116, 2-amino-4-[(9S)-9-ethyl-4-fluoro-2-{[(2R,7aS)-2-fluorotetrahydro-1H-pyrrolizin-7a(5H)-yl]methoxy}-10-methyl-9,10-dihydro-8H-7-oxa-1,3,6,10-tetraazacyclohepta[1,2,3-de]naphthalen-5-yl]-1-benzothiophene-3-carbonitrile] | 6.41 nM | 14.2 nM | 760 nM | > 3000 nM | 
CCc1c(F)ccc2cc(O)cc(-c3nc4c5c(nc(OC[C@@]67CCCN6C[C@H](F)C7)nc5c3F)N3CCC[C@@](C)(O)[C@H]3CO4)c12 [compound 3, (8aR,9R)-5-(8-ethyl-7-fluoro-3-hydroxynaphthalen-1-yl)-4-fluoro-2-{[(2R,7aS)-2-fluorotetrahydro-1H-pyrrolizin-7a(5H)-yl]methoxy}-9-methyl-8,8a,9,10,11,12-hexahydro-7-oxa-1,3,6,12a-tetraazabenzo[4,5]cyclohepta[1,2,3-de]naphthalen-9-ol] | 1.85 nM | 1.66 nM | 15.5 nM | 57.5 nM | 
CC[C@H]1COc2nc(-c3cc(O)cc4ccc(F)c(F)c34)c(F)c3nc(OC[C@@]45CCCN4C[C@H](F)C5)nc(c23)N1C [Example 115, 4-[(9S)-9-ethyl-4-fluoro-2-{[(2R,7aS)-2-fluorotetrahydro-1H-pyrrolizin-7a(5H)-yl]methoxy}-10-methyl-9,10-dihydro-8H-7-oxa-1,3,6,10-tetraazacyclohepta[1,2,3-de]naphthalen-5-yl]-5,6-difluoronaphthalen-2-ol] | 2.4 nM | 2.61 nM | 106 nM | 352 nM | 
